Measured values from ChEMBL document CHEMBL3885861, “Open TG-GATES”.

Species: Rattus norvegicus
Assay: Open TG-GATES - Regimen: Daily Repeat
Assay type: toxicity, organism-based, Sprague-Dawley
Design: regimen Daily Repeat, gender Male, age 6 weeks
Settings: in vivo, po, 0 mg/kg, route gavage, dose level Control; for APTT / Bas / Eos / Fbg / Hb / Ht / Lym / MCH / MCHC / MCV / Mono / Neu / PT / Plat / RBC / Ret / WBC: tissue Blood; for KIDNEY_L / KIDNEY_R / KIDNEY_TOTAL: tissue Kidney; for LIVER: tissue Liver; for ALP / ALT / AST / BUN / CRE / Ca / DBIL / GLC / IP / K / LDH / Na / PL / RALB / TBIL / TC / TG / TP / gamma-GTP: tissue Plasma

Molecule `Oc1ncnc2[nH]ncc12` [ALLOPURINOL] has a TERMINAL_BW (72 h, time 3 day) of 244.3 g, an APTT (72 h, time 3 day) of 16.6 s and a Bas (72 h, time 3 day) of 0%. The Eos (72 h, time 3 day) was 0.8%, the Fbg (72 h, time 3 day) was 237 mg/dL and the Hb (72 h, time 3 day) was 13.9 g/dL. The Ht (72 h, time 3 day) was 41.5%, the Lym (72 h, time 3 day) was 74.6% and the MCH (72 h, time 3 day) was 22.3 pg. For the same molecule, the MCHC (72 h, time 3 day) was 33.3%, the MCV (72 h, time 3 day) was 66.7 fL and the Mono (72 h, time 3 day) was 11.6%. For the same molecule, the Neu (72 h, time 3 day) was 12.8%, the PT (72 h, time 3 day) was 11.9 s and the Plat (72 h, time 3 day) was 93.5 x10_4/uL. For the same molecule, the RBC (72 h, time 3 day) was 623.2 x10_4/ul, the Ret (72 h, time 3 day) was 7.7% and the WBC (72 h, time 3 day) was 127.2 x10_2/uL. It also gave a KIDNEY_L (72 h, time 3 day) of 1 g, a KIDNEY_R (72 h, time 3 day) of 1 g and a KIDNEY_TOTAL (72 h, time 3 day) of 2.1 g. The LIVER (72 h, time 3 day) was 12.2 g, the ALP (72 h, time 3 day) was 863.2 IU/L and the ALT (72 h, time 3 day) was 34.2 IU/L. For the same molecule, the AST (72 h, time 3 day) was 58.2 IU/L, the BUN (72 h, time 3 day) was 18.2 mg/dL and the CRE (72 h, time 3 day) was 0.5 mg/dL. It also gave a Ca (72 h, time 3 day) of 11.4 mg/dL, a DBIL (72 h, time 3 day) of 0 mg/dL and a GLC (72 h, time 3 day) of 201.6 mg/dL. It also gave an IP (72 h, time 3 day) of 8.1 mg/dL, a K (72 h, time 3 day) of 4.9 meq/L and an LDH (72 h, time 3 day) of 84.6 IU/L. For the same molecule, the Na (72 h, time 3 day) was 137.8 meq/L, the PL (72 h, time 3 day) was 174.6 mg/dL and the RALB (72 h, time 3 day) was 3.9 g/dL. The TBIL (72 h, time 3 day) was 0.2 mg/dL, the TC (72 h, time 3 day) was 87.8 mg/dL and the TG (72 h, time 3 day) was 130 mg/dL. It also gave a TP (72 h, time 3 day) of 6 g/dL, a gamma-GTP (72 h, time 3 day) of 1.2 IU/L and a TERMINAL_BW ([…], time 7 day) of 249.8 g. For the same molecule, the TERMINAL_BW ([…], time 14 day) was 318.9 g, the TERMINAL_BW ([…], time 28 day) was 401.4 g and the APTT ([…], time 7 day) was 17.2 s. It also gave a Bas ([…], time 7 day) of 0%, an Eos ([…], time 7 day) of 1% and a Fbg ([…], time 7 day) of 242.2 mg/dL. The Hb ([…], time 7 day) was 15 g/dL, the Ht ([…], time 7 day) was 45.2% and the Lym ([…], time 7 day) was 77.8%. The MCH ([…], time 7 day) was 20.4 pg, the MCHC ([…], time 7 day) was 33.2% and the MCV ([…], time 7 day) was 61.4 fL. For the same molecule, the Mono ([…], time 7 day) was 4.8%, the Neu ([…], time 7 day) was 16.8% and the PT ([…], time 7 day) was 12 s. For the same molecule, the Plat ([…], time 7 day) was 118.1 x10_4/uL, the RBC ([…], time 7 day) was 737.4 x10_4/ul and the Ret ([…], time 7 day) was 4.5%. It also gave an APTT ([…], time 14 day) of 16.9 s, a Bas ([…], time 14 day) of 0% and an Eos ([…], time 14 day) of 1%. For the same molecule, the Fbg ([…], time 14 day) was 227 mg/dL, the Hb ([…], time 14 day) was 14.5 g/dL and the Ht ([…], time 14 day) was 44%. The Lym ([…], time 14 day) was 76.4%, the MCH ([…], time 14 day) was 19.9 pg and the MCHC ([…], time 14 day) was 33%. For the same molecule, the MCV ([…], time 14 day) was 60.5 fL, the Mono ([…], time 14 day) was 6% and the Neu ([…], time 14 day) was 16.8%. It also gave a PT ([…], time 14 day) of 11.9 s, a Plat ([…], time 14 day) of 97.7 x10_4/uL and an RBC ([…], time 14 day) of 728 x10_4/ul. It also gave a Ret ([…], time 14 day) of 3.7%, an APTT ([…], time 28 day) of 16.3 s and a Bas ([…], time 28 day) of 0%. For the same molecule, the Eos ([…], time 28 day) was 1%, the Fbg ([…], time 28 day) was 230.6 mg/dL and the Hb ([…], time 28 day) was 14.8 g/dL. For the same molecule, the Ht ([…], time 28 day) was 44.2%, the Lym ([…], time 28 day) was 80.8% and the MCH ([…], time 28 day) was 19.3 pg. The MCHC ([…], time 28 day) was 33.5%, the MCV ([…], time 28 day) was 57.6 fL and the Mono ([…], time 28 day) was 6.2%. It also gave a Neu ([…], time 28 day) of 11.8%, a PT ([…], time 28 day) of 12.3 s and a Plat ([…], time 28 day) of 109.3 x10_4/uL. The RBC ([…], time 28 day) was 766.8 x10_4/ul, the Ret ([…], time 28 day) was 3.5% and the WBC ([…], time 28 day) was 163 x10_2/uL. The KIDNEY_L ([…], time 7 day) was 1.1 g, the KIDNEY_R ([…], time 7 day) was 1.1 g and the KIDNEY_TOTAL ([…], time 7 day) was 2.1 g. For the same molecule, the KIDNEY_L ([…], time 14 day) was 1.2 g, the KIDNEY_R ([…], time 14 day) was 1.2 g and the KIDNEY_TOTAL ([…], time 14 day) was 2.5 g. It also gave a KIDNEY_L ([…], time 28 day) of 1.4 g, a KIDNEY_R ([…], time 28 day) of 1.4 g and a KIDNEY_TOTAL ([…], time 28 day) of 2.8 g. The LIVER ([…], time 14 day) was 14.3 g, the LIVER ([…], time 28 day) was 16.2 g and the ALP ([…], time 7 day) was 874.8 IU/L. The ALT ([…], time 7 day) was 26 IU/L, the AST ([…], time 7 day) was 56.2 IU/L and the BUN ([…], time 7 day) was 22.4 mg/dL. For the same molecule, the CRE ([…], time 7 day) was 0.5 mg/dL, the DBIL ([…], time 7 day) was 0.06 mg/dL and the GLC ([…], time 7 day) was 203 mg/dL. The IP ([…], time 7 day) was 7.7 mg/dL, the K ([…], time 7 day) was 4.6 meq/L and the LDH ([…], time 7 day) was 86.2 IU/L. For the same molecule, the Na ([…], time 7 day) was 136.6 meq/L, the PL ([…], time 7 day) was 135.4 mg/dL and the RALB ([…], time 7 day) was 4 g/dL. For the same molecule, the TBIL ([…], time 7 day) was 0.3 mg/dL, the TC ([…], time 7 day) was 68.2 mg/dL and the TG ([…], time 7 day) was 60.4 mg/dL. It also gave a TP ([…], time 7 day) of 6.2 g/dL, a gamma-GTP ([…], time 7 day) of 1.2 IU/L and an ALP ([…], time 14 day) of 710.4 IU/L. It also gave an ALT ([…], time 14 day) of 32 IU/L, an AST ([…], time 14 day) of 62.8 IU/L and a BUN ([…], time 14 day) of 17.8 mg/dL. For the same molecule, the CRE ([…], time 14 day) was 0.6 mg/dL, the Ca ([…], time 14 day) was 10.9 mg/dL and the DBIL ([…], time 14 day) was 0.01 mg/dL. It also gave a GLC ([…], time 14 day) of 206.4 mg/dL, an IP ([…], time 14 day) of 7.9 mg/dL and a K ([…], time 14 day) of 4.3 meq/L. For the same molecule, the LDH ([…], time 14 day) was 69.8 IU/L, the Na ([…], time 14 day) was 139.8 meq/L and the PL ([…], time 14 day) was 150 mg/dL. The RALB ([…], time 14 day) was 3.6 g/dL, the TBIL ([…], time 14 day) was 0.3 mg/dL and the TC ([…], time 14 day) was 70 mg/dL. The TG ([…], time 14 day) was 118 mg/dL, the TP ([…], time 14 day) was 6 g/dL and the gamma-GTP ([…], time 14 day) was 1.6 IU/L. For the same molecule, the ALP ([…], time 28 day) was 602.4 IU/L, the ALT ([…], time 28 day) was 31.6 IU/L and the AST ([…], time 28 day) was 61.8 IU/L. The BUN ([…], time 28 day) was 20 mg/dL, the CRE ([…], time 28 day) was 0.4 mg/dL and the DBIL ([…], time 28 day) was 0.018 mg/dL. The GLC ([…], time 28 day) was 186 mg/dL, the IP ([…], time 28 day) was 6.5 mg/dL and the K ([…], time 28 day) was 4.7 meq/L. The LDH ([…], time 28 day) was 81 IU/L, the Na ([…], time 28 day) was 138.8 meq/L and the PL ([…], time 28 day) was 146.2 mg/dL. It also gave an RALB ([…], time 28 day) of 3.8 g/dL, a TBIL ([…], time 28 day) of 0.3 mg/dL and a TC ([…], time 28 day) of 67.2 mg/dL. For the same molecule, the TG ([…], time 28 day) was 147.4 mg/dL, the TP ([…], time 28 day) was 6.2 g/dL and the gamma-GTP ([…], time 28 day) was 1.4 IU/L.
